Assay results published in US11572590B2, “Methods for evaluating tumor cell spheroids using 3D microfluidic cell culture device” (Dana-Farber Cancer Institute, Inc., priority 2017, dated 2023).
Read-outs that look alike come from different tables or passages of the source.

What was measured:
Test in all cases: SelectScreen Kinase Profiling, single point inhibition and IC50 for off-target kinases
Assay type in all cases: biochemical
off-target kinases [1] = target: off-target kinases (Homo sapiens, UniProt P04626)
off-target kinases [2] = target: T1, off-target kinases (Homo sapiens, UniProt P54760); details: EPHB4, ZLYTE, ATP Km app
T1 sequence (P54760 16-987): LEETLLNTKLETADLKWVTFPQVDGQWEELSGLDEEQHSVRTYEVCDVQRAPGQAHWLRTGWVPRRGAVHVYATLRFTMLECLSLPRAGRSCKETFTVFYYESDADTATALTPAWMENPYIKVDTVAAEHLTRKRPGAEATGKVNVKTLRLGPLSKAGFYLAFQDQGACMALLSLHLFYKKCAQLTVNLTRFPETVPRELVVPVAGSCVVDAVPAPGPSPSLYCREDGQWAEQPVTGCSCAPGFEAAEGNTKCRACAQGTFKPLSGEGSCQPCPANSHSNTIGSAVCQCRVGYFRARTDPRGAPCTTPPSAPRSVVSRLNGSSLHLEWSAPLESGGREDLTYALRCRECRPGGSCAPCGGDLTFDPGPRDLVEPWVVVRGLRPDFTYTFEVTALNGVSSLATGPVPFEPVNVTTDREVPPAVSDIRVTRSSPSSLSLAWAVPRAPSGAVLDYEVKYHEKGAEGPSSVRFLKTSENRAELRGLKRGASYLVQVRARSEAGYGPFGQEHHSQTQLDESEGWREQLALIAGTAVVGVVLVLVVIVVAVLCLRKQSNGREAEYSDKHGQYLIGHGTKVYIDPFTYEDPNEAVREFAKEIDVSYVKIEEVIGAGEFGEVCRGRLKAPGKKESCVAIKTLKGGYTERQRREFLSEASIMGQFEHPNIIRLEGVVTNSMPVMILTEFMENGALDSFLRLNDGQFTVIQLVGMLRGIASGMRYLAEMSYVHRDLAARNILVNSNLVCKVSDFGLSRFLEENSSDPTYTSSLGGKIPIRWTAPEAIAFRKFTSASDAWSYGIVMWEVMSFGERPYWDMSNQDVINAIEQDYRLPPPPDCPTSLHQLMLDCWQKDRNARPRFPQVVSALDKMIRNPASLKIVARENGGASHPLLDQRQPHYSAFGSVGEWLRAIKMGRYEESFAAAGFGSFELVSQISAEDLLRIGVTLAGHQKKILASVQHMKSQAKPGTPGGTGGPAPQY

off-target kinases [3] = target: off-target kinases (Homo sapiens, UniProt Q00536); details: CDK16 (PCTK1)/cyclin Y, LanthaScreen Binding
off-target kinases [4] = target: off-target kinases (Homo sapiens, UniProt Q13131)
off-target kinases [5] = target: off-target kinases (Homo sapiens, UniProt P10721, T670I/V559D); details: KIT V559D T670I, LanthaScreen Binding
off-target kinases (Homo sapiens, UniProt P10721, T670I/V559D), sequence (P10721 26-976 V559D/T670I): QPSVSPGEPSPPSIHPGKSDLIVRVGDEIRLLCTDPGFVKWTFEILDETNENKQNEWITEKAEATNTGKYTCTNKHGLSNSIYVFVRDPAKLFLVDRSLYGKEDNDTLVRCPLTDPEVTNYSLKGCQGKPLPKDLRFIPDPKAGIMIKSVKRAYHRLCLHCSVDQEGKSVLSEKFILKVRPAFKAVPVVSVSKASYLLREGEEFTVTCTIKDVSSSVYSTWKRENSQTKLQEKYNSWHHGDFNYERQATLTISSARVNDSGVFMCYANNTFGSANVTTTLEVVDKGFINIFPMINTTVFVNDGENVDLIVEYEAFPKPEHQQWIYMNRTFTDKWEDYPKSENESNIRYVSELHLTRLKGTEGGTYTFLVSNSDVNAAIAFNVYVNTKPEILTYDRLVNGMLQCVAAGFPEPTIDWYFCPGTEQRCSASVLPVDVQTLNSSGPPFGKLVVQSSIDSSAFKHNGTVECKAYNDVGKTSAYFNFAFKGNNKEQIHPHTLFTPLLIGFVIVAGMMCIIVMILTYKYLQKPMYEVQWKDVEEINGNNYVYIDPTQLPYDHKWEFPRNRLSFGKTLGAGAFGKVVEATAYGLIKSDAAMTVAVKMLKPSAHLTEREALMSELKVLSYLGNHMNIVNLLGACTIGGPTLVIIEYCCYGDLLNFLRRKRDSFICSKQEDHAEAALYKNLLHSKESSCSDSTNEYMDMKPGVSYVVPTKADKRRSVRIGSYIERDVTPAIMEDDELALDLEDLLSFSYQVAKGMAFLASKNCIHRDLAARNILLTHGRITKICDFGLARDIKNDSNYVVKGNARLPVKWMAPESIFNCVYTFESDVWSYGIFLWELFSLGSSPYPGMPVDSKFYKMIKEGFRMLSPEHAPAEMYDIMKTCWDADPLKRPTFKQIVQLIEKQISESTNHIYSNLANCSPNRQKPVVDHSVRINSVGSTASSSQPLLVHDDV

off-target kinases (Homo sapiens, UniProt P04626), sequence (P04626 23-1255): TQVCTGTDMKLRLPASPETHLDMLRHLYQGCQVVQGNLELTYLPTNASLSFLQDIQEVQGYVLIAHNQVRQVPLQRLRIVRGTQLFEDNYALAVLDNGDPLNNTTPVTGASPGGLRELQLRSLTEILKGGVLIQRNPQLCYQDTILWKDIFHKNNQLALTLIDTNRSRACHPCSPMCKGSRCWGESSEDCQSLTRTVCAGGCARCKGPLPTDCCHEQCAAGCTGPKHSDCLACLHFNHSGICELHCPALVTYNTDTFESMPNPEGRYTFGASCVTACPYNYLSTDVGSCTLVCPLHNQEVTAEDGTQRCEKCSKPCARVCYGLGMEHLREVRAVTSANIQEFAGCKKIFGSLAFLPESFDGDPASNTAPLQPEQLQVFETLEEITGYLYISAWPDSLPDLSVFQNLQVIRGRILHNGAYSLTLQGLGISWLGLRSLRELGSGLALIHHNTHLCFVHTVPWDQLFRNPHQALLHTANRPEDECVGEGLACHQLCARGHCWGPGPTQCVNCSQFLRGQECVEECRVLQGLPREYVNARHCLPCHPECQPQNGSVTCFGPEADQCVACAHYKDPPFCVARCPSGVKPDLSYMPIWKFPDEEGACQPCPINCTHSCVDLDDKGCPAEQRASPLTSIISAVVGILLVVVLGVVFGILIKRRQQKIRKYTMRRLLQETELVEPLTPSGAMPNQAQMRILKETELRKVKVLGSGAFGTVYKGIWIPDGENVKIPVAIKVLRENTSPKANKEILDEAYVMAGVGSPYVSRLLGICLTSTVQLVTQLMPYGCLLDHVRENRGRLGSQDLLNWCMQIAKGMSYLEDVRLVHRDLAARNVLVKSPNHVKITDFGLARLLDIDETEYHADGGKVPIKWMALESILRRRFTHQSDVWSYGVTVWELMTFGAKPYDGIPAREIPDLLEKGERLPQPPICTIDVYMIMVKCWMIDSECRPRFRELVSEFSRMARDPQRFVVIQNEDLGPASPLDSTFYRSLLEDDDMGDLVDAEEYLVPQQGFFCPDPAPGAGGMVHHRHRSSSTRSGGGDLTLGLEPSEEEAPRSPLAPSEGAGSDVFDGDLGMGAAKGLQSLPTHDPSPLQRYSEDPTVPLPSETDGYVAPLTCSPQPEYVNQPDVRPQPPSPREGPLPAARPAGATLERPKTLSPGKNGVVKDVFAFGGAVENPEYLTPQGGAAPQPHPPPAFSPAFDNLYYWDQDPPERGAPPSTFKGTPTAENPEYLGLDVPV
off-target kinases (Homo sapiens, UniProt Q13131), sequence (Q13131 whole entry): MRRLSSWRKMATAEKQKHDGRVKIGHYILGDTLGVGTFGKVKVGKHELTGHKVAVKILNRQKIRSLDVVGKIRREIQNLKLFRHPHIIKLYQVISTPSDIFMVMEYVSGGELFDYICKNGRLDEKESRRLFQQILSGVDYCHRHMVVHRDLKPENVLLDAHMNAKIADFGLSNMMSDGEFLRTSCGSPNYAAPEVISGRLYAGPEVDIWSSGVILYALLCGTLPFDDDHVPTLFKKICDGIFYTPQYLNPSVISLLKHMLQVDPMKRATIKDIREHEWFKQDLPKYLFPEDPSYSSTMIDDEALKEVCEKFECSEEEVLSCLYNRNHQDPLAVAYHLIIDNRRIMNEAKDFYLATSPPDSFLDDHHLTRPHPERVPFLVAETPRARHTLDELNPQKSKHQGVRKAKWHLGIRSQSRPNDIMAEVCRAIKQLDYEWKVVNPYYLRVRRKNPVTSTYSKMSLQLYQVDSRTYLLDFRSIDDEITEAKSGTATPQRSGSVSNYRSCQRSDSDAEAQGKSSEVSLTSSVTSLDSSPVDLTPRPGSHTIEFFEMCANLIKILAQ
off-target kinases (Homo sapiens, UniProt Q00536), sequence (Q00536 whole entry): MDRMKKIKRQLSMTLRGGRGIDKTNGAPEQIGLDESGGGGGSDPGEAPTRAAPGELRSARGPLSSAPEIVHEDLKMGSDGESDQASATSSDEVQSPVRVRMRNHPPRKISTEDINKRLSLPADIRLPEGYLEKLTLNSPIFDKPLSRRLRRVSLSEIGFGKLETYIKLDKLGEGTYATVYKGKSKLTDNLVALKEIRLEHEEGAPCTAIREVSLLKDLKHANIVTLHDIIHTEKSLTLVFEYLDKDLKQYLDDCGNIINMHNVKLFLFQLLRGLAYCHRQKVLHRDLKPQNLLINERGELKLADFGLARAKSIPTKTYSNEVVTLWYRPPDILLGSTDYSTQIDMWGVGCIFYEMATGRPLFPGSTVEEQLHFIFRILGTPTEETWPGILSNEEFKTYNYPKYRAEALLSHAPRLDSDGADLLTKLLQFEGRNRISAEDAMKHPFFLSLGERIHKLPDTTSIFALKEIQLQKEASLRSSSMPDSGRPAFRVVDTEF

N#Cc1cc(-c2ncnc(Nc3ccc(N4CCN(C5COC5)CC4)cc3)n2)ccc1OC1CCOCC1 [Compound 1, 5-(4-((4-(4-(oxetan-3-yl)piperazin-1-yl)phenyl)amino)-1,3,5-triazin-2-yl)-2-((tetrahydro-2H-pyran-4-yl)oxy)benzonitrile]
inhibition (off-target kinases [1]; ERBB2 (HER2), ZLYTE, ATP Km app, read-out: % Inhibition 1): 0% | inhibition (off-target kinases [1]; ERBB2 (HER2), ZLYTE, ATP Km app, read-out: % Inhibition 2): -3% | inhibition (off-target kinases [1]; read-out: % Inhibition Avg): -1% | inhibition (off-target kinases [2]; read-out: % Inhibition 1): 15% | inhibition (off-target kinases [2]; read-out: % Inhibition 2): 14% | inhibition (off-target kinases [2]; read-out: % Inhibition Avg): 15% | inhibition (off-target kinases [3]; read-out: % Inhibition 1): 70% | inhibition (off-target kinases [3]; read-out: % Inhibition 2): 73% | inhibition (off-target kinases [3]; read-out: % Inhibition Avg): 71% | inhibition (off-target kinases [4]; AMPK (A1/B1/G2), LanthaScreen Binding, read-out: % Inhibition 1): 40% | inhibition (off-target kinases [4]; AMPK (A1/B1/G2), LanthaScreen Binding, read-out: % Inhibition 2): 40% | inhibition (off-target kinases [4]; AMPK (A1/B1/G2), LanthaScreen Binding, read-out: % Inhibition Avg): 40% | inhibition (off-target kinases [4]; AMPK (A1/B1/G3), LanthaScreen Binding, read-out: % Inhibition 1): 37% | inhibition (off-target kinases [4]; AMPK (A1/B1/G3), LanthaScreen Binding, read-out: % Inhibition 2): 42% | inhibition (off-target kinases [4]; AMPK (A1/B1/G3), LanthaScreen Binding, read-out: % Inhibition Avg): 39% | inhibition (off-target kinases [4]; AMPK (A1/B2/G1), LanthaScreen Binding, read-out: % Inhibition 1): 49% | inhibition (off-target kinases [4]; AMPK (A1/B2/G1), LanthaScreen Binding, read-out: % Inhibition 2): 43% | inhibition (off-target kinases [4]; AMPK (A1/B2/G1), LanthaScreen Binding, read-out: % Inhibition Avg): 46% | inhibition (off-target kinases [4]; AMPK A1/B1/G1, ATP Km app, ZLYTE, read-out: % Inhibition 1): 58% | inhibition (off-target kinases [4]; AMPK A1/B1/G1, ATP Km app, ZLYTE, read-out: % Inhibition 2): 53% | inhibition (off-target kinases [4]; AMPK A1/B1/G1, ATP Km app, ZLYTE, read-out: % Inhibition Avg): 55% | inhibition (off-target kinases [5]; read-out: % Inhibition 1): 46% | inhibition (off-target kinases [5]; read-out: % Inhibition 2): 49% | inhibition (off-target kinases [5]; read-out: % Inhibition Avg): 47%
